Assay results published in ChEMBL document CHEMBL5634076, “Optimization of pyridylpiperazine-based inhibitors of the Escherichia coli AcrAB-TolC efflux pump” (Eur J Med Chem, 2023).
In brackets after ≈: the same amount, converted by molar mass.

Assays:
Escherichia coli [1] = assay: Antibacterial activity against Escherichia coli BW25113 assessed as reduction in bacterial growth incubated up to 18 hrs by resazurin microtitre assay; assay type: functional
Escherichia coli [2] = assay: Antibacterial activity against Escherichia coli BW25113 assessed as reduction in bacterial growth incubated for 20 hrs by resazurin microtitre assay; assay type: functional
[3] = target: T1, Multidrug efflux pump subunit AcrB (Escherichia coli (strain K12)) (UniProt P31224); assay: Inhibition of AcrB in Escherichia coli BW25113 assessed as potentiation of pyridomycin-induced antibacterial activity incubated for 20 hrs by resazurin microtitre assay
T1 sequence (whole entry): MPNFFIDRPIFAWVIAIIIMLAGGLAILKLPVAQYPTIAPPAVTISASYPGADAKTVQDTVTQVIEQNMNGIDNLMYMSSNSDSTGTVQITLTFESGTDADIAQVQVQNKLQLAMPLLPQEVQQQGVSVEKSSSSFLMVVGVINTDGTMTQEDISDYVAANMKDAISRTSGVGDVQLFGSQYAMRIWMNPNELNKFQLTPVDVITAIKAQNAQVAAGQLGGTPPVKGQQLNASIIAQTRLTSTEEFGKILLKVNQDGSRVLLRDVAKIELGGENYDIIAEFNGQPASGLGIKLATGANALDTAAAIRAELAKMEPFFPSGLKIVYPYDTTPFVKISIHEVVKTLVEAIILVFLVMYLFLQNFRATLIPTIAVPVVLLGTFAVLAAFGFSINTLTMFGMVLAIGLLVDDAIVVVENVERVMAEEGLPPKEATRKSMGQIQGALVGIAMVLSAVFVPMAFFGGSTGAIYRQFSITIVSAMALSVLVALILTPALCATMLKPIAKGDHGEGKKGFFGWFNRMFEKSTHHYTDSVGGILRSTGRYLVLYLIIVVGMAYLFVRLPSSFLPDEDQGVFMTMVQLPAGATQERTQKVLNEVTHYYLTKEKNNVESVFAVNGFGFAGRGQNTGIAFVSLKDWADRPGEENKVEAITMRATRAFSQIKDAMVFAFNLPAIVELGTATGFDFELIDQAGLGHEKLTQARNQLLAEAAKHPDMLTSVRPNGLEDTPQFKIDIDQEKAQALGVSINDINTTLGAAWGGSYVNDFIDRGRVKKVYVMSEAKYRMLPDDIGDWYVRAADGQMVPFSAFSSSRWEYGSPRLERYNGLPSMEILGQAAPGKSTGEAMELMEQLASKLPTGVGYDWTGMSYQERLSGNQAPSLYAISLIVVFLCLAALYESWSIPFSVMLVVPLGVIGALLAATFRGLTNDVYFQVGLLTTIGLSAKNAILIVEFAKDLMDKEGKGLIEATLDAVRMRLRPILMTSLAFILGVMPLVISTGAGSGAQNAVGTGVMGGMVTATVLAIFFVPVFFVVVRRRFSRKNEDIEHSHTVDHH

Escherichia coli [4] = assay: Inhibition of AcrB Asp951Asn mutant in Escherichia coli BW25113 assessed as potentiation of pyridomycin-induced antibacterial activity incubated for 20 hrs by resazurin microtitre assay
Escherichia coli [5] = assay: Selectivity ratio of EC90 for inhibition of AcrB Asp951Asn mutant in Escherichia coli BW25113 to inhibition of AcrB in Escherichia coli BW25113 incubated for 20 hrs by resazurin microtitre assay
Escherichia coli [6] = assay: Selectivity ratio of EC90 for inhibition of AcrB Glu947Gln mutant in Escherichia coli BW25113 to inhibition of AcrB in Escherichia coli BW25113 incubated for 20 hrs by resazurin microtitre assay
Escherichia coli [7] = assay: Inhibition of AcrB Glu947Gln mutant in Escherichia coli BW25113 assessed as potentiation of pyridomycin-induced antibacterial activity incubated for 20 hrs by resazurin microtitre assay
[8] = target: T1, Multidrug efflux pump subunit AcrB (Escherichia coli (strain K12)); assay: Potency index, ratio of BDM73185 EC90 to test compound EC90 for inhibition of AcrAB-TolC in Escherichia coli BW25113
[9] = target: T1, Multidrug efflux pump subunit AcrB (Escherichia coli (strain K12)); assay: Inhibition of AcrB in Escherichia coli BW25113 assessed as potentiation of pyridomycin-induced antibacterial activity incubated for 5 hrs by resazurin reduction assay
[10] = Stability in CD-1 mouse liver microsomes assessed as half life at 1 uM measured up to 40 mins by LC-MS/MS analysis; assay type: ADME, Microsome
[11] = Stability in CD-1 mouse liver microsomes assessed as intrinsic clearance at 1 uM measured up to 40 mins by LC-MS/MS analysis; assay type: ADME, Microsome; conditions: read-out: CLH
[12] = Stability in mouse plasma assessed as half life at 10 uM measured up to 360 mins by LC-MS/MS analysis; assay type: ADME, cell-free
[13] = Solubility of compound in PBS at pH 7.4 incubated for 24 hrs by LC-MS/MS analysis; assay type: physicochemical

| Compound | MIC (Escherichia coli [2]) [µM] | EC90 [3] [µM] | further results |
| --- | --- | --- | --- |
| CCN1CCN(C(=O)N[C@@H](C(=O)N[C@@H]2C(=O)N3[C@@H]2SC(C)(C)[C@@H]3C(=O)O)c2ccccc2)C(=O)C1=O [PIPERACILLIN] | – | – | MIC95 (Escherichia coli [1]): 4 µg/mL (≈ 7.73 µM) |
| C[C@@H]1CN(c2ncc(C(F)(F)F)cc2Cl)C[C@H](C)N1 | > 250 | > 500 | – |
| FC(F)(F)c1cnc(N2CCNCC2)c(Br)c1 | > 250 | 16 | – |
| CC(=O)O[C@H]1C[C@@]2(C)[C@@H](C[C@@H](O)[C@H]3[C@@]4(C)CC[C@@H](O)[C@@H](C)[C@@H]4CC[C@@]32C)/C1=C(\CCC=C(C)C)C(=O)O [FUSIDIC ACID] | – | – | MIC95 (Escherichia coli [2]): > 128 µg/mL |
| O=C(Oc1cccc(CO)c1)c1cnc(N2CCNCC2)c(Cl)c1 | > 250 | 26 | EC90 (Escherichia coli [4]): 62 µM; Ratio (Escherichia coli [5]): 2.4; Ratio (Escherichia coli [6]): 2.4; EC90 (Escherichia coli [7]): 62 µM |
| NCc1cccc(COc2cnc(N3CCNCC3)c(Cl)c2)c1 | > 250 | 10 | EC90 (Escherichia coli [4]): 250 µM; Ratio (Escherichia coli [5]): 25; Ratio (Escherichia coli [6]): > 25; EC90 (Escherichia coli [7]): > 250 µM |
| O=C(O)c1cnc(N2CCNCC2)c(Cl)c1 | > 250 | – | – |
| OCc1cnc(N2CCNCC2)c(Cl)c1 | > 250 | > 250 | – |
| NCc1cccc(NC(=O)c2cnc(N3CCNCC3)c(Cl)c2)c1 | > 250 | 156 | – |
| FC(F)(F)c1cc(I)cnc1N1CCNCC1 | > 250 | 94 | – |
| CC(=O)Nc1cnc(N2CCNCC2)c(Cl)c1 | > 250 | 187 | – |
| C[C@@H]1CNCCN1c1ncc(C(F)(F)F)cc1Cl | > 250 | > 500 | – |
| O=C(OCCCc1ccccc1)c1cnc(N2CCNCC2)c(Cl)c1 | 250 (≈ 90 µg/mL) | 250 | – |
| O=C(N[C@H](CO)[C@H](O)c1ccc([N+](=O)[O-])cc1)C(Cl)Cl [CHLORAMPHENICOL] | – | – | MIC95 (Escherichia coli [2]): 8 µg/mL (≈ 24.8 µM) |
| CC[C@H]1OC(=O)[C@H](C)[C@@H](O[C@H]2C[C@@](C)(OC)[C@@H](O)[C@H](C)O2)[C@H](C)[C@@H](O[C@@H]2O[C@H](C)C[C@H](N(C)C)[C@H]2O)[C@](C)(O)C[C@@H](C)C(=O)[C@H](C)[C@@H](O)[C@]1(C)O [ERYTHROMYCIN] | – | – | MIC95 (Escherichia coli [1]): 128 µg/mL (≈ 174 µM) |
| C[C@H]1CNCCN1c1ncc(C(F)(F)F)cc1Cl | > 250 | > 500 | – |
| NCCOC(=O)c1cnc(N2CCNCC2)c(Cl)c1 | > 250 | > 250 | – |
| NCc1cccc(OCc2cnc(N3CCNCC3)c(Cl)c2)c1 | > 250 | 23 | EC90 (Escherichia coli [4]): > 250 µM; Ratio (Escherichia coli [5]): > 11; Ratio (Escherichia coli [6]): > 11; EC90 (Escherichia coli [7]): > 250 µM |

| Compound | MIC (Escherichia coli [2]) [µM] | EC90 [3] [µM] | further results |
| --- | --- | --- | --- |
| NCc1nc(-c2cnc(N3CCNCC3)c(Cl)c2)no1 | > 250 | 81 | EC90 (Escherichia coli [4]): 250 µM; Ratio (Escherichia coli [5]): 3; Ratio (Escherichia coli [6]): 3; EC90 (Escherichia coli [7]): 250 µM |
| O=C(OCCc1ccccc1)c1cnc(N2CCNCC2)c(Cl)c1 | > 250 | 62 | – |
| Cc1nc(-c2cnc(N3CCNCC3)c(Cl)c2)no1 | > 250 | 78 | – |
| Cc1onc(-c2ccccc2)c1C(=O)N[C@@H]1C(=O)N2[C@@H]1SC(C)(C)[C@@H]2C(=O)O [OXACILLIN] | – | – | MIC95 (Escherichia coli [2]): > 128 µg/mL |
| CS(=O)(=O)Nc1cnc(N2CCNCC2)c(Cl)c1 | > 250 | > 250 | – |
| OCc1cc(C(F)(F)F)cnc1N1CCNCC1 | > 250 | > 500 | – |
| FC(F)(F)c1ccc(N2CCNCC2)nc1 | > 250 | > 500 | – |
| CC(C)(C)OC(=O)N1CCN(c2ncc(/C(N)=N/O)cc2Cl)CC1 | > 250 | – | – |
| Cc1nc(-c2cnc(N3CCNCC3)c(Cl)c2)cs1 | > 250 | 187 | – |
| NCCc1ccc(OC(=O)c2cnc(N3CCNCC3)c(Cl)c2)cc1 | > 250 | 3 | EC90 (Escherichia coli [4]): 23 µM; Ratio (Escherichia coli [5]): 8; Ratio (Escherichia coli [6]): 3; EC90 (Escherichia coli [7]): 8 µM |
| CO[C@@H]1[C@@H](OC(N)=O)[C@@H](O)[C@H](Oc2ccc3c(O)c(NC(=O)c4ccc(O)c(CC=C(C)C)c4)c(=O)oc3c2C)OC1(C)C [NOVOBIOCIN] | – | – | MIC95 (Escherichia coli [2]): 80 µg/mL (≈ 131 µM) |
| FC(F)(F)c1cnc(C2=CCNCC2)c(Cl)c1 | > 250 | > 250 | – |
| CC(=O)NC[C@H]1CN(c2ccc(N3CCOCC3)c(F)c2)C(=O)O1 [LINEZOLID] | – | – | MIC95 (Escherichia coli [2]): > 128 µg/mL |
| Clc1cc(I)cnc1N1CCNCC1 | > 250 | – | EC90 [9]: 12 µM; half-life at 1 µM [10]: 9 min; microsomal CLint at 1 µM [11]: 241 µL/min/mg; half-life at 10 µM [12]: > 360 min; solubility at 24 h [13]: > 200 µM |
| NCCCc1nc(-c2cnc(N3CCNCC3)c(Cl)c2)no1 | > 250 | 21 | EC90 (Escherichia coli [4]): > 250 µM; Ratio (Escherichia coli [5]): > 12; Ratio (Escherichia coli [6]): > 12; EC90 (Escherichia coli [7]): > 250 µM |
| O=C(O)c1cn(C2CC2)c2cc(N3CCNCC3)c(F)cc2c1=O [CIPROFLOXACIN] | – | – | MIC95 (Escherichia coli [2]): 0.01 µg/mL (≈ 0.0302 µM) |
| CCOC(=O)c1cnc(N2CCNCC2)c(Cl)c1 | > 250 | 12 | Ratio [8]: 3 |

Continued, in another order:

| MIC (Escherichia coli [2]) [µM] | EC90 [3] [µM] | Compound | further results |
| --- | --- | --- | --- |
| > 250 | > 500 | NCCNc1ncc(C(F)(F)F)cc1Cl | – |
| > 250 | 47 | NCCc1ccc(C(=O)Nc2cnc(N3CCNCC3)c(Cl)c2)cc1 | – |
| > 250 | 187 | NCCc1ccc(NC(=O)c2cnc(N3CCNCC3)c(Cl)c2)cc1 | – |
| > 250 | – | CC(C)(C)OC(=O)N1CCN(c2ncc(N)cc2Cl)CC1 | – |
| > 250 | > 250 | CNC(=O)c1cnc(N2CCNCC2)c(Cl)c1 | – |
| > 250 | 20 | COC(=O)c1cnc(N2CCNCC2)c(Cl)c1 | Ratio [8]: 3 |
| > 250 | 23 | O=C(Oc1ccccc1)c1cnc(N2CCNCC2)c(Cl)c1 | – |
| > 250 | 187 | Cc1nnc(-c2cnc(N3CCNCC3)c(Cl)c2)o1 | – |
| > 250 | > 500 | O=C1CN(c2ncc(C(F)(F)F)cc2Cl)CCN1 | – |
| > 250 | – | O=C(CBr)c1cnc(N2CCN(C(=O)OCC(Cl)(Cl)Cl)CC2)c(Cl)c1 | – |
| > 250 | 500 | NC1CCN(c2ncc(C(F)(F)F)cc2Cl)CC1 | – |
| > 250 | 156 | O=C(OCc1ccccc1)c1cnc(N2CCNCC2)c(Cl)c1 | – |
| > 250 | > 250 | Cc1nc(-c2cnc(N3CCNCC3)c(Cl)c2)co1 | – |
| > 250 | > 500 | FC(F)(F)c1cnc(N2CCCNCC2)c(Cl)c1 | – |
